Data on one compound can be found in US20230158071A1, “TUMOR COMBINED IMMUNOTHERAPY” (CRAGE medical Co., Limited, priority 2018, published 2023).

The assay concerns E0771-EGFRvIII cells. As to the kind of experiment: LDH cytotoxicity assay, CAR-T killing of olaparib-treated E0771-EGFRvIII cells. Type of assay: cell-based, mouse. On the procedure:
The experimental groups for incubating with cells that are positive for the antigen target comprises the following 4 groups: UTD group, 806-mCD28z-CAR-T group (or denoted as 806-28Z), olaparib pretreatment group, and olaparib combined treatment group;
the olaparib pretreatment group comprises: UTD+1 μM olaparib pretreatment group (or denoted as UTD+Olaparib 1 μM pretreatment), UTD+5 μM olaparib pretreatment group (or denoted as UTD+Olaparib 5 μM pretreatment), 806-mCD28z-CAR-T+1 μM olaparib pretreatment group (or denoted as 806-28Z+Olaparib 1 μM pretreatment). 806-mCD28z-CAR-T+5 μM olaparib pretreatment group (or denoted as 806-28Z+Olaparib 5 μM pretreatment); […]
Olaparib pretreatment group: different concentrations of olaparib (1 μM, 5 μM) are added to the medium for culturing E0771-EGFRVIII or 4T1-EGFRvIII tumor cells respectively, culturing at 37° C. for 24 h, and then the cells are treated with trypsin and resuspended in fresh medium. The untreated mouse T cells and 806-mCD28z-CAR T cells in Example 1 are respectively taken to incubate with E0771-EGFRvIII or 4T1-EGFRVIII cells pretreated with different concentrations of olaparib at a ratio of 1:3, 1:1, and 3:1; 16 hours later, the secretion of LDH in the supernatant is detected by Cytox 96 Non-Radioactive Cytotoxicity Assay, then calculating the killing toxicity of 806-mCD28z CAR T cells to tumor cells pretreated with different concentrations of olaparib. […] Cytox 96 Non-Radioactive Cytotoxicity Assay (Promaga, REF: G1782); at the same time, the secretions of cytokines Granzyme B, IFN-γ, and IL-2 in the supernatant are detected by ELISA kit (Lianke Biotech Co. Ltd. CAT: 18^.22), for specific experimental procedures, referring to instructions of MouseGranzyme B, IFN-γ, IL-2 ELISA kit from Lianke Biotech Co, Ltd. […]

Structures are written as SMILES.

In the case of `O=C(c1cc(Cc2n[nH]c(=O)c3ccccc23)ccc1F)N1CCN(C(=O)C2CC2)CC1` [olaparib], where the note is “5 μM olaparib combined treatment group”, the “lethal effect on E0771-EGFRvIII cells compared with the CAR-T single treatment group” value is listed as “higher synergistic lethal effect”. Besides, the “promotion of the killing effect of CAR-T cells on E0771-EGFRvIII cells” value (5 μM olaparib pretreatment group, better than 5 μM combined treatment group) is “most significant”. Besides, the “killing effect of CAR-T cells on E0771-EGFRvIII cells” value (olaparib 1 μM or 5 μM, pretreatment or combined treatment, vs CAR-T alone, ratio 1:3, 1:1, 3:1, 16 hours, LDH) was “significantly improved”.
